In US10752598B2, “Aryldiazepine derivatives as RSV inhibitors” (Enanta Pharmaceuticals, Inc., priority 2017, dated 2020) one finds EC50 data, which are given here for 20 compounds.

The EC50 is the midpoint of the concentration-response curve. A higher EC50 goes with lower potency in that assay.

The structures appear in SMILES notation. Bounds are passed on as bounds.

The test concerns Human RSV-A (“Long” strain). The experiment in a line: RSV-A in vitro cytoprotection (CPE) assay in HEp-2 cells, ATPlite readout. To be noted: human respiratory syncytial virus, 96 h, 4-day incubation, ATPlite cell viability. The class given is cell-based. An excerpt: RSV is a single stranded negative sense RNA virus that causes respiratory tract infections which can be dangerous to infants, the elderly, and immunosuppressed individuals. Currently there is no vaccine, and therapeutic options are both costly and of limited effectiveness. These approved treatments are Ribavirin, and Palivizumab/Synagis (a monoclonal antibody). RSV has two genotypes, A and B, which differ primarily in the structure of the virus' surface “G” attachment protein. Our current primary screen focusses on RSV-A and uses an in vitro cytoprotection assay where compounds are added in 2-fold dilutions to cells which are then subjected to fully replicative viral particles. Cell viability is measured several days later along with separate measurements of compound cytotoxicity. This report focuses on the results of our most recent screening of compounds.
HEp-2 cells, (originally derived from tumors grown in irradiated-cortisonised weanling rats that had been injected with epidermoid carcinoma tissue from a person's larynx, but later found to be indistinguishable from HeLa cells by PCR DNA analysis), were used for the culturing of genotype A, “Long” strain RSV. Flasks were inoculated with RSV and viral stocks were collected once cytopathic effect (CPE) was greater than 90%. Viral stocks in 25% sucrose media were snap frozen using liquid nitrogen to increase viral stability. Viral stock titers were quantified by tissue culture infectious dose 50% (TCID50) using 8,000 cells per well and 3-fold viral dilutions across a 96-well plate, cultured for 4 days.
Following extensive parameter testing, the final assay is run as follows: HEp-2 cells are seeded into the inner 60 wells of a 96-well plate at 8,000 cells per well in a volume of […] Growth Media (DMEM without phenol red, 1% L-Glut, 1% Penn/Strep, 1% nonessential amino acids, 10% FBS). 2-fold serial dilutions of control and test compounds are added to the wells in duplicate in a total volume of 25 μL. Viral stock is then added to the wells in a volume of 25 μL, bringing the total volume of each well to 100 μL. Each 96-well plate has a control column of 6 wells with cells and virus but no compound (negative control, max CPE), a column with cells but no compound or virus (positive control, minimum CPE), and a column with no cells or virus or compound (background plate/reagent control). The control wells with cells but no virus are given an additional 25 uL of growth media containing an equal quantity of sucrose as those wells receiving the viral stock in order to keep consistent in media and volume conditions. The outer wells of the plate are filled with 125 μL of growth media to act as a thermal and evaporative moat around the test wells. Following a 4-day incubation period, the plates are read using ATPlite (50 uL added per well), which quantifies the amount of ATP (a measure of cell health) present in each well. Assay plates are read using the Envision luminometer. […] EC50 ranges are as follows: A<2 μM; B 2-5 μM; C>5 μM.
A general note: In ATP-based viability assays light output follows the ATP content of the culture.
For the compound `O=C1Nc2ccccc2N(c2ccccc2)C[C@@H]1Nc1nnc(-c2ccccc2)o1` [Example 1, (S)-5-phenyl-3-((5-phenyl-1,3,4-oxadiazol-2-yl)amino)-1,3,4,5-tetrahydro-2H-benzo[b][1,4]diazepin-2-one], the 50% effective concentration (EC50) was above 5 µM.
Turning to `O=C1Nc2ccccc2N(c2ccccc2)C[C@@H]1Nc1nc2ccccc2o1` [Example 2, (S)-3-(benzo[d]oxazol-2-ylamino)-5-phenyl-1,3,4,5-tetrahydro-2H-benzo[b][1,4]diazepin-2-one], the EC50 was above 5 µM.
In the case of `O=C(Nc1ccccc1)N[C@H]1CN(c2ccccc2)c2ccccc2NC1=O` [Example 3] it was above 5 µM; in that of `O=C(N[C@H]1CN(c2ccccc2)c2ccccc2NC1=O)c1ccccc1` [Example 4, (S)—N-(4-oxo-1-phenyl-2,3,4,5-tetrahydro-1H-benzo[b][1,4]diazepin-3-yl)benzamide], above 5 µM; in that of `O=C1Nc2ccccc2N(c2ccccc2)C[C@@H]1Nc1nnc(-c2ncc(C(F)(F)F)cc2N2CCOCC2)o1` [Example 5, (S)-3-((5-(3-morpholino-5-(trifluoromethyl)pyridin-2-yl)-1,3,4-oxadiazol-2-yl)amino)-5-phenyl-1,3,4,5-tetrahydro-2H-benzo[b][1,4]diazepin-2-one], below 2 µM.
In the case of `O=C1Nc2ccccc2N(c2ccccc2)C[C@@H]1Nc1nnc(-c2cccnc2N2CCOCC2)o1` [Example 6] it was 2 to 5 µM; in that of `O=C1Nc2ccccc2N(c2ccccc2)C[C@@H]1Nc1nnc(-c2ncc(C3CC3)cc2N2CCOCC2)o1` [Example 7], below 2 µM; in that of `COCCNc1cc(C(F)(F)F)cnc1-c1nnc(N[C@H]2CN(c3ccccc3)c3ccccc3NC2=O)o1` [Example 8], above 5 µM.
For `Cc1ccc(-c2nnc(N[C@H]3CN(c4ccccc4)c4ccccc4NC3=O)o2)o1` [Example 9], the EC50 was above 5 µM.
The compound `O=C1Nc2ccccc2N(c2ccccc2)C[C@@H]1Nc1nnc(-c2cn(C3CCCC3)nc2N2CCOCC2)o1` [Example 10] showed a concentration for a half-maximal effect (EC50) below 2 µM.
In the case of `O=C1Nc2ccccc2N(c2ccccc2)C[C@@H]1Nc1nnc(-c2ccc(F)cc2)o1` [Example 11] it was above 5 µM; in that of `O=C1Nc2ccccc2N(c2ccccc2)C[C@@H]1Nc1nnc(-c2ccc(N3CCOCC3)cc2F)o1` [Example 12], above 5 µM; in that of `O=C1Nc2ccccc2N(c2ccccc2)C[C@@H]1Nc1nnc(-c2cn(-c3ccccn3)nc2N2CCOCC2)o1` [Example 13], 2 to 5 µM.
Next, `O=C1Nc2ccccc2N(c2ccccc2)C[C@@H]1Nc1nnc(-c2nc(C(F)(F)F)sc2N2CCOCC2)o1` [Example 14, (S)-3-((5-(5-morpholino-2-(trifluoromethyl)thiazol-4-yl)-1,3,4-oxadiazol-2-yl)amino)-5-phenyl-1,3,4,5-tetrahydro-2H-benzo[b][1,4]diazepin-2-one]: below 2 µM; `O=C1Nc2ccccc2N(c2ccccc2)C[C@@H]1Nc1nnc(-c2nc(C3CC3)sc2N2CCOCC2)o1` [Example 15]: below 2 µM.
Next, `O=C1Nc2ccccc2N(c2ccccc2)C[C@@H]1Nc1nnc(-c2nc(-c3cccnc3)sc2N2CCOCC2)o1` [Example 16]: below 2 µM; `O=C1Nc2ccccc2N(c2cc(F)c(F)c(F)c2)C[C@@H]1Nc1nnc(-c2ncc(C(F)(F)F)cc2N2CCOCC2)o1` [Example 17]: above 5 µM; `O=C1Nc2ccccc2N(c2ccccc2)C(=O)C1Nc1nnc(-c2ccccc2)o1` (centres unmarked) [Example 19]: above 5 µM.
For the compound `O=C(Nc1ccccc1)NC1C(=O)Nc2ccccc2N(c2ccccc2)C1=O` (centres unmarked) [Example 20], the EC50 was above 5 µM.
Regarding `O=C(NC1C(=O)Nc2ccccc2N(c2ccccc2)C1=O)c1ccccc1` (centres unmarked) [Example 21], the half-maximal effective concentration (EC50) was above 5 µM.
